Test results published in patent US6506772B1, “Substituted [1,2,4]triazolo[1,5a]pyridine derivatives with activity as adenosine receptor ligands” (Hoffmann-La Roche Inc., priority 2000, dated 2003).

Experiments:
[1] = target: T1, human adenosine A2A receptor (Homo sapiens, UniProt P29274); assay: Human adenosine A2A receptor [3H]-SCH-58261 binding assay; settings: for Ki: affinity to human adenosine A2A receptor, read-out: Ki HA2A; for selectivity (A1/A2a): calculated ratio of the affinity to the HA1 receptor to the HA2a receptor
T1 construct: expressed in transfected cells; host or cells: CHO cells, Semliki Forest virus expression system; membrane preparation

HA1 adenosine receptor = target: T2, HA1 adenosine receptor (Homo sapiens, UniProt P30542); assay: Human adenosine A1 receptor affinity (Ki hA1); format: binding; settings: affinity to human adenosine A1 receptor
T2 sequence (P30542 1-326): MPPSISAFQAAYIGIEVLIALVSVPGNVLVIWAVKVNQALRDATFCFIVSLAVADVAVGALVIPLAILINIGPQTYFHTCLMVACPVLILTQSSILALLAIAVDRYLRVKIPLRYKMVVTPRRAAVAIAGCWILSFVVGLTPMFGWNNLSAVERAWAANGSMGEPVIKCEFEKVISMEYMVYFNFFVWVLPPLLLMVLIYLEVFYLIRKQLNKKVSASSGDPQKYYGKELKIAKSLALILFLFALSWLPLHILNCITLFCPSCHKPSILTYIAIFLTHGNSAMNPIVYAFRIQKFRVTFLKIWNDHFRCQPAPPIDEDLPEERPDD

T1 sequence (P29274 whole entry): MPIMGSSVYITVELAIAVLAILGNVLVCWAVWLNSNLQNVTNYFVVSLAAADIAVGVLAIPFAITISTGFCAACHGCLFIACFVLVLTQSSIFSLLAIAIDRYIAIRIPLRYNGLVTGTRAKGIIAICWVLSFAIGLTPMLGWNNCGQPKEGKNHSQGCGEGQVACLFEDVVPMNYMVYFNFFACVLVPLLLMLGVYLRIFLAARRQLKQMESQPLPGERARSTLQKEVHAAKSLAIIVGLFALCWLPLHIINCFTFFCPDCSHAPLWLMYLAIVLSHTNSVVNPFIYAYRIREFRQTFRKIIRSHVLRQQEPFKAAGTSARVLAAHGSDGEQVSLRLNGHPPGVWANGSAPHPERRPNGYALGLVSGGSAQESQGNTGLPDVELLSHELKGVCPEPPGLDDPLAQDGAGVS

Structure (SMILES)	Ki [1] [nM]	selectivity (A1/A2a) [1]	Ki (HA1 adenosine receptor) [nM]
CCN(Cc1ccncc1)C(=O)c1cc(N)n2nc(-c3ccc(Br)o3)nc2c1 [Example 314, 5-Amino-2-(5-bromo-furan-2-yl)-[1,2,4]triazolo[1,5-a]pyridine-7-carboxylic acid ethyl-pyridin-4-ylmethyl-amide]	1.2	49.3	59.1
Nc1cc(C(=O)N2CC=CCC2)cc2nc(-c3nccs3)nn12 [Example 315, (5-Amino-2-thiazol-2-yl-[1,2,4]triazolo[1,5-a]pyridin-7-yl)-(3,6-dihydro-2H-pyridin-1-yl)-methanone]	97.5	20.4	1990
CC1CCCN(C(=O)c2cc(N)n3nc(-c4nccs4)nc3c2)C1 (stereo not drawn) [Example 316, (5-Amino-2-thiazol-2-yl-[1,2,4]triazolo[1,5-a]pyridin-7-yl)-(3,methyl-piperidin-1-yl)-methanone]	72.3	30.3	2190
Nc1cc(C(=O)N2CCCCCC2)cc2nc(-c3nccs3)nn12 [Example 317, (5-Amino-2-thiazol-2-yl-[1,2,4]triazolo[1,5-a]pyridin-7-yl)-azepan-1-yl-methanone]	34.5	33.6	1160
CCCN(CC1CC1)C(=O)c1cc(N)n2nc(-c3nccs3)nc2c1 [Example 319, 5-Amino-2-thiazol-2-yl-[1,2,4]triazolo[1,5-a]pyridine-7-carboxylic acid cyclopropylmethyl-propyl-amide]	87	14.3	1240
CC1CCCC(C)N1C(=O)c1cc(N)n2nc(-c3nccs3)nc2c1 (stereo not drawn) [Example 320]	82.7	7.4	614
CN(CCc1ccccc1)C(=O)c1cc(N)n2nc(-c3nccs3)nc2c1 [Example 322, 5-Amino-2-thiazol-2-yl-[1,2,4]triazolo[1,5-a]pyridine-7-carboxylic acid methyl-phenethyl-amide]	127	9.6	1220
CCN(Cc1ccccc1)C(=O)c1cc(N)n2nc(-c3nccs3)nc2c1 [Example 323, 5-Amino-2-thiazol-2-yl-[1,2,4]triazolo[1,5-a]pyridine-7-carboxylic acid benzyl-ethyl-amide]	25.2	13.6	342
CCN(Cc1ccncc1)C(=O)c1cc(N)n2nc(-c3nccs3)nc2c1 [Example 325, 5-Amino-2-thiazol-2-yl-[1,2,4]triazolo[1,5-a]pyridine-7-carboxylic acid ethyl-pyridin-4-ylmethyl-amide]	37.6	35.2	1330
Nc1cc(C(=O)N(Cc2ccccc2)Cc2ccccc2)cc2nc(-c3nccs3)nn12 [Example 327, 5-Amino-2-thiazol-2-yl-[1,2,4]triazolo[1,5-a]pyridine-7-carboxylic acid dibenzylamide]	5.8	22.2	128
CCNC(=O)c1cc(N)n2nc(-c3nccs3)nc2c1 [Example 328, 5-Amino-2-thiazol-2-yl-[1,2,4]triazolo[1,5-a]pyridine-7-carboxylic acid ethylamide]	31.7	39.1	1240
CC1CCCCN1C(=O)c1cc(N)n2nc(-c3nccs3)nc2c1 (stereo not drawn) [Example 329, (5-Amino-2-thiazol-2-yl-[1,2,4]triazolo[1,5-a]pyridin-7-yl)-(2-methyl-piperidin-1-yl)-methanone]	47.3	41.9	1980
CC1CCN(C(=O)c2cc(N)n3nc(-c4nccs4)nc3c2)CC1 [Example 330, (5-Amino-2-thiazol-2-yl-[1,2,4]triazolo[1,5-a]pyridin-7-yl)-(4-methyl-piperidin-1-yl)-methanone]	64.4	43.1	2780
CCCN(CCC)C(=O)c1cc(N)n2nc(-c3nccs3)nc2c1 [Example 331, 5-Amino-2-thiazol-2-yl-[1,2,4]triazolo[1,5-a]pyridine-7-carboxylic acid dipropylamide]	87.5	30.9	2700
Nc1cc(C(=O)N2CCCCCCC2)cc2nc(-c3nccs3)nn12 [Example 332, (5-Amino-2-thiazol-2-yl-[1,2,4]triazolo[1,5-a]pyridin-7-yl)-azocan-1-yl-methanone]	17.2	49.1	844
CC1CC(C)CN(C(=O)c2cc(N)n3nc(-c4nccs4)nc3c2)C1 (stereo not drawn) [Example 333, (5-Amino-2-thiazol-2-yl-[1,2,4]triazolo[1,5-a]pyridin-7-yl)-(3,5-dimethyl-piperidin-1-yl)-methanone]	36.1	47.9	1730
CCCCN(CCC)C(=O)c1cc(N)n2nc(-c3nccs3)nc2c1 [Example 334, 5-Amino-2-thiazol-2-yl-[1,2,4]triazolo[1,5-a]pyridine-7-carboxylic acid butyl-propyl-amide]	98	18.3	1790
CCNC(=O)c1cc(N)n2nc(-c3ccc(Br)o3)nc2c1 [Example 335, 5-Amino-2-(5-bromo-furan-2-yl)-[1,2,4]triazolo[1,5-a]pyridine-7-carboxylic acid ethylamide]	25.2	14.1	355
CC1CCN(C(=O)c2cc(N)n3nc(-c4ccc(Br)o4)nc3c2)CC1 [Example 337, [5-Amino-2-(5-bromo-furan-2-yl)-[1,2,4]triazolo[1,5-a]pyridin-7-yl]-(4-methyl-piperidin-1-yl)-methanone]	6.4	28.6	183
CCCN(CCC)C(=O)c1cc(N)n2nc(-c3ccc(Br)o3)nc2c1 [Example 338, 5-Amino-2-(5-bromo-furan-2-yl)-[1,2,4]triazolo[1,5-a]pyridine-7-carboxylic acid dipropylamide]	3.1	64.4	200
Nc1cc(C(=O)N2CCCCCCC2)cc2nc(-c3ccc(Br)o3)nn12 [Example 339, [5-Amino-2-(5-bromo-furan-2-yl)-[1,2,4]triazolo[1,5-a]pyridin-7-yl]-azocan-1-yl-methanone]	1.3	28.5	37
CN(C(=O)c1cc(N)n2nc(-c3ccc(Br)o3)nc2c1)C1CCCCC1 [Example 340, 5-Amino-2-(5-bromo-furan-2-yl)-[1,2,4]triazolo[1,5-a]pyridine-7-carboxylic acid cyclohexyl-methyl-amide]	2.6	29.7	77.3
CC1CC(C)CN(C(=O)c2cc(N)n3nc(-c4ccc(Br)o4)nc3c2)C1 (stereo not drawn) [Example 341, [5-Amino-2-(5-bromo-furan-2-yl)-[1,2,4]triazolo[1,5-a]pyridin-7-yl]-(3,5-dimethyl-piperidin-1-yl)-methanone]	1.7	70.3	120
CCCCN(CCC)C(=O)c1cc(N)n2nc(-c3ccc(Br)o3)nc2c1 [Example 342, 5-Amino-2-(5-bromo-furan-2-yl)-[1,2,4]triazolo[1,5-a]pyridine-7-carboxylic acid butyl-propyl-amide]	3	47.3	142
CN(Cc1ccccc1)C(=O)c1cc(N)n2nc(-c3ccc(Br)o3)nc2c1 [Example 343, 5-Amino-2-(5-bromo-furan-2-yl)-[1,2,4]triazolo[1,5-a]pyridine-7-carboxylic acid benzyl-methyl-amide]	2.7	15.6	42.2
C=CCN(C(=O)c1cc(N)n2nc(-c3ccc(Br)o3)nc2c1)C1CCCC1 [Example 344, 5-Amino-2-(5-bromo-furan-2-yl)-[1,2,4]triazolo[1,5-a]pyridine-7-carboxylic acid allyl-cyclopentyl-amide]	1.6	44.8	71.7
CCN(C(=O)c1cc(N)n2nc(-c3ccc(Br)o3)nc2c1)C1CCCCC1 [Example 345, 5-Amino-2-(5-bromo-furan-2-yl)-[1,2,4]triazolo[1,5-a]pyridine-7-carboxylic acid cyclohexyl-ethyl-amide]	2	31.1	62.1
CC(C)CN(CC(C)C)C(=O)c1cc(N)n2nc(-c3ccc(Br)o3)nc2c1 [Example 346, 5-Amino-2-(5-bromo-furan-2-yl)-[1,2,4]triazolo[1,5-a]pyridine-7-carboxylic acid diisobutylamide]	2.4	42.7	102
Nc1cc(C(=O)N2CCc3ccccc3C2)cc2nc(-c3ccc(Br)o3)nn12 [Example 347, [5-Amino-2-(5-bromo-furan-2-yl)-[1,2,4]triazolo[1,5-a]pyridin-7-yl]-(3,4-dihydro-1H-isoquinolin-2-yl)-methanone]	13.3	17.7	236
C=CCN(C(=O)c1cc(N)n2nc(-c3ccc(Br)o3)nc2c1)C1CCCCC1 [Example 348, 5-Amino-2-(5-bromo-furan-2-yl)-[1,2,4]triazolo[1,5-a]pyridine-7-carboxylic acid allyl-cyclohexyl-amide]	2.6	25.8	67
